Source: patent US10561676B2, “Method for treating cancer using dual antagonists of CXCR1 and CXCR2” (Syntrix Biosystems, Inc., priority 2018, dated 2020)

What was measured:
CXCR1 = biological target: T1, CXCR1 (Homo sapiens, UniProt P25024); experiment: Wash-resistant inhibition of CXCL8-mediated calcium flux, CXCR1-transfected RBL cells; format: cell-based; conditions: 30 min incubation at 0.4, 2, 10 μM, then washout
T1 construct: expressed in transfected cells
T1 sequence (P25024 1-350): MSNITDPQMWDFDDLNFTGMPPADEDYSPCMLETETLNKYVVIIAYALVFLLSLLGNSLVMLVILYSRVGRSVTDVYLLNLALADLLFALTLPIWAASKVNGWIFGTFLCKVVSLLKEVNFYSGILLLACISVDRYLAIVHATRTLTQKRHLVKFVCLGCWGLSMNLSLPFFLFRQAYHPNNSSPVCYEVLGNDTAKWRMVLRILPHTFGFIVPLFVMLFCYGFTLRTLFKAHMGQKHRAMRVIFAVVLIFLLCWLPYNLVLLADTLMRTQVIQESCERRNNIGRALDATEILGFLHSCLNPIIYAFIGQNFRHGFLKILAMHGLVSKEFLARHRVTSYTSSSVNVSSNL
Protocol: In order to test this hypothesis, RBL cells (10^7 cells/ml) stably transfected with either CXCR1 or CXCR2 were (1) incubated with SX-682 at various concentrations for 30 minutes at 37° C., (2) washed and resuspended in assay buffer (RPMI/2% serum) at room temperature, and (3) assayed for CXCL8-mediated calcium response at time points up to 12 h after inhibitor washout. The concentrations of SX-682 tested were 0 (positive control), 0 (negative control), 0.4, 2, and 10 μM. At 30 minutes before each time point, a 56.25 μl aliquot of the cells were removed and loaded for 30 minutes at room temperature in the dark with FLIPR™ 3 reagent (262.5 μl per tube). Following FLIPR™ 3 incubation, cells were assayed for CXCL8 mediated intracellular calcium release as described in Pharmacology Example 1.

[1] = tested on: C3Tag mouse model of breast cancer; experiment: C3Tag mouse model of breast cancer; format: in vivo
Source text: The C31-T-antigen (C3Tag) mouse model is a validated model of human triple-negative basal cell breast cancer as shown by gene expression analysis (Maroulakou, 1994, Proc Natl Acad Sci, 91:11236-40, herein incorporated by reference). The expressed large T-antigen binds and inactivates the RB and p53 tumor suppressor genes, explaining why this model faithfully recapitulates human basal breast cancer, which also harbors RB and p53 inactivation. This model also has frequent K-Ras amplification and infrequent Ras mutations. Treatment regimens were started following tumor manifestation. SX-682 was given orally via medicated feed, at an approximate dose of 10 mg/day/mouse. CP was administered once weekly via intraperitoneal injection at a dose of 50 mg/kg.

MDSCs = experiment: GROα-mediated MDSC migration; format: cell-based, mouse; conditions: 0.1, 1 and 10 μM, 100 ng/ml GROα, 12 hours
Protocol: Using the of method of Katoh 2013 to induce and isolate MDSCs, male BALBc mice were given a single intraperitoneal injection of azoxymethane (AOM, 10 mg/kg). Seven days later, these mice were given 4 cycles of water and water containing 1.25% dextran sulfate sodium (DSS). One cycle consisted of providing mice with regular drinking water for 7 days, followed by 1.25% aqueous DSS for 7 days, followed by regular drinking water for 7 days. MDSCs were isolated from femurs and blood of AOM/DSS-treated BALBc mice using the Myeloid-Derived Suppressor Cell Isolation Kit (Miltenyi Biotec) after lysis of red blood cells (RBC) according to the manufacturer's instructions. GROα (CXCL1) was placed in the bottom chamber of a 24-well plate at a concentration of 100 ng/ml. MDSCs isolated from blood of AOM/DSS-treated BALBc mice were seeded at a density of 1×10^6/well in the upper chamber (3 m, BD Falcon). After incubation for 12 hours, migrated cells were quantified by flow cytometry using COUNTBRIGHT™ Absolute Counting Beads (Molecular Probes). To evaluate the effect of SX-682 on GROα-mediated MDSC migration, aqueous DMSO solutions of SX-682 were added to the MDSC-seeded wells prior to migration. The test concentrations of SX-682 were 0.1, 1 and 10 μM, and the DMSO concentration was <1%.

[2] = tested on: B16-F10 syngeneic mouse model of melanoma; experiment: B16-F10 syngeneic mouse model of melanoma; format: in vivo
Protocol: The B16-F10 mouse model is an established model of melanoma, Overwijk, 2001, CURR PROTOC IMMUNOL, Chapter 20: Units 20-21 (herein incorporated by reference), which was used to evaluate the effect of SX-682 alone and in combination with anti-PD1 antibody. B16-F10 mouse melanoma cells were cultured, then mice were injected with 0.5×10^6 B16-F10 cells on day 0, and treatment was initiated on day 18. Mice were treated with vehicle (control), SX-682 alone (50 mg/kg twice daily, oral), anti-PD-1 alone (100 μg twice weekly, i.p.), or SX-682 in combination with anti-PD-1 (N=4-5 per cohort). SX-682 was used as a spray dried dispersion (Formulation Example 1), and was administered to mice via oral gavage as a suspension in 0.5% aq. methylcellulose. […] Data and error bars are the mean±SE.

[3] = tested on: isolated human neutrophils; experiment: CXCL8-mediated intracellular calcium flux in isolated human neutrophils; format: cell-based; conditions: Neutrophil, 25 nM CXCL8, mean ±SE
Protocol: Cells were incubated for 30 min at 37° C. […] The test compound or DMSO (control) was added again at the same concentrations that were used during cell loading.
The maximum change in fluorescence, expressed in arbitrary units over baseline (Max-Min), was used to determine the CXCL8 response.

[4] = tested on: T11 mouse model of breast cancer; experiment: T11 mouse model of breast cancer; format: in vivo
Source text: The T11 model is a validated mouse model of breast cancer, which derives from the serial orthotopic transplantation of a murine breast tumor derived from a p53-null mouse into a syngeneic p53 competent recipient, and features sporadic, somatic K-Ras mutation (Herschkowitz, 2012, Proc Natl Acad Sci, 109:2778-83, herein incorporated by reference). Tumors from the T11 model display an RNA expression pattern characteristic of the human claudin-low disease, and are extremely aggressive, with the majority of untreated animals surviving less than 21 days from the time of enrollment in the therapy studies. Treatment regimens were started following tumor manifestation. SX-682 was given orally via medicated feed, at an approximate dose of 10 mg/day/mouse. In brief, the medicated feed was prepared by Research Diets (New Brunswick, N.J.) by incorporating 15.2 grams of SX-682 spray dried dispersion (as prepared in Formulation Example 1) into 1042 grams of standard rodent diet with 10% kcals from fat. The medicated feed was formed into pellets. Carboplatin (CP) was administered once weekly via intraperitoneal injection at a dose of 50 mg/kg. […] Mean±SE. *** P<0.0001 (linear regression).

[5] = SX-682 10 mg/day/mouse oral feed + CP 50 mg/kg weekly i.p.

O=C(Nc1ccc(F)cc1)c1cnc(SCc2cc(OC(F)(F)F)ccc2B(O)O)nc1 [SX-682, 2-(2-boronic acid-5-trifluoromethoxy-benzylsulfanyl)-pyrimidine-5-carboxylic acid (4-fluoro-phenyl)-amide]
time inhibition of calcium flux is sustained after washout (CXCR1): at least 12 hours
tumor growth vs untreated controls, SX-682 alone ([1]; 10 mg/day/mouse oral feed): significantly reduced tumor growth
median survival, SX-682 combined with CP [1, 5]: > 60 days
tumor growth vs untreated controls, SX-682 in combination with carboplatin [1, 5]: significantly reduced tumor growth
median survival, single agent ([1]; SX-682 10 mg/day/mouse oral, carboplatin 50 mg/kg weekly i.p., vehicle 18 days): 28 days
GROα-mediated MDSC migration (MDSCs): effectively inhibit GROα-mediated MDSC migration in a dose-dependent manner
tumor growth, SX-682 monotherapy ([2]; 50 mg/kg twice daily, oral): significantly slowed tumor growth
tumor growth, SX-682 in combination with anti-PD-1 ([2]; SX-682 50 mg/kg twice daily oral + anti-PD-1 100 μg twice weekly i.p.): significantly better than either therapy alone
IC50 [3]: 55 ± 6 nM
tumor volume, SX-682 alone ([4]; 10 mg/day/mouse oral, 1-2 weeks): effective therapy
tumor growth, SX-682 added to carboplatin [4, 5]: significantly reduced tumor growth
